Experimental data taken from patent US20230111310A1, “CARBOXYLIC ACID DERIVATIVE-SUBSTITUTED IMINO ARYL COMPOUND, PREPARATION METHOD THEREFOR, HERBICIDAL COMPOSITION AND USE THEREOF” (Qingdao Kingagroot Chemical Compound Co., Ltd., priority 2020, published 2023).

Legend:
Format in all cases: in vivo
Malachium aquaticum = test: Composition activity test, post-emergence foliage spray
Protocol: (§1) are as follows, and the others were purchased from reagent companies. The technical materials were all dissolved in acetone and diluted with an aqueous solution containing 0.1% emulsifier Tween-80. The dilution is performed as required.
(§2) Weeds were cultivated by a pot culture method. […] Full and uniform weed seeds were selected, soaked in warm water at 25° C. for 6 hours, and germinated in a 28° C. biochemical incubator (darkness). The weed seeds that had just germinated were evenly placed on the surface of the soil and then covered with 0.5-1 cm soil according to the sizes of seeds.
(§3) The culture was carried out in a controllable sunlight greenhouse at 20 to 30° C., in natural light, and relative humidity of 57% to 72%.
(§4) 3 pots with 20 weed seeds per pot were treated in one treatment with 4 replications per treatment.
(§5) The agents were used for only once in the experiment. In the stage of weeds with 1.5-2 leaves, the weeds were thinned out to maintain 10 weeds per pot and 30 weeds for each treatment, then continued to be cultured to Conyza Canadensis 10 cm in height, other weeds 3-4 leaves stage and treated.
(§6) The well-cultured weeds were evenly placed on a platform with an area of 0.5 m^2, and a solution of agents was sprayed on the stems and leaves thereof by the 3WP-2000-type walking spray tower at a dosage of 450 kg/ha and at a spray pressure of 0.3 MPa. After all the solution was sprayed, the valve was closed. After 30 seconds, the door of the spray tower was opened, and the nutritional bowl was taken out. Then the valve was opened, and the spray tube was cleaned by spraying 50 ml of water. After the treatment, the weeds were routinely cultured in a greenhouse.
(§7) A method for investigating absolute number was employed, wherein whole seedlings of survival weeds were cut off with a blade along the soil surface, and the fresh weight of the weeds was weighed with an analytical balance. For dead weeds, the fresh weight thereof was zero.
(§8) The investigation was performed after 21 days of the treatment for only once.
(§9) An optimum ratio of the two active ingredients was determined by the actual control effect, characteristics of herbicides, and balance of a corresponding formula. Wherein, in the formula, X represented the fresh weight inhibition rate of the active ingredient A in a dosage of P, and Y represented the fresh weight inhibition rate of the active ingredient B in a dosage of Q. The statistical results were shown in the table 6.

Eleusine indica = test: Weeding effect in post-emergence stage; conditions: for activity level (growth control rate) Eleusine indica: post-emergence, 7.5 g/ha, 3 weeks
Procedure, shortened: (§10)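 Weeds were treated post-emergence at 2-3 leaves with compound doses from 7.5 up to 500 g/ha, formulated in acetone–Tween 80 with methyl oleate synergist. Efficacy was assessed as growth control after 3 weeks.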

Amaranthus retroflexus = test: Weeding effect in post-emergence stage; conditions: 7.5 g/ha, 3 weeks
Procedure, shortened: as §10

Echinochloa crusgalli = test: Weeding effect in post-emergence stage; conditions: for activity level (growth control rate) Echinochloa crusgalli: post-emergence, 7.5 g/ha, 3 weeks
Procedure, shortened: as §10

Lithospermum arvense = test: Composition activity test, post-emergence foliage spray
Protocol: as §1, §2, §3, §4, §5, §6, §7, §8, §9

Alopecurus japonicus = test: Weeding effect in post-emergence stage; conditions: Dose 15 g/ha; fresh weight control rate level
Procedure, shortened: as §10

Setaria viridis = test: Weeding effect in post-emergence stage; conditions: Dose 15 g/ha; fresh weight control rate level
Procedure, shortened: as §10

Digitaria sanguinalis = test: Weeding effect in post-emergence stage; conditions: Dose 15 g/ha; fresh weight control rate level
Procedure, shortened: as §10

[1] = Dose 15 g/ha, fresh weight control rate level

## COc1cc(OC)nc(NC(=O)NS(=O)(=O)c2ncccc2C(=O)N(C)C)n1 [nicosulfuron]
Malachium aquaticum; B 3 g a.i./ha
  Control effect (%) of B applied alone (B): 31.4%

## COC(=O)c1csc(C)c1S(=O)(=O)NC(=O)n1nc(OC)n(C)c1=O [thiencarbazone-methyl]
Malachium aquaticum; B 3 g a.i./ha
  Control effect (%) of B applied alone (B): 41.1%

## COC(=O)[C@H](C)O/N=C/c1cc(-n2c(=O)cc(C(F)(F)F)n(C)c2=O)c(F)cc1Cl [194(S)]
Eleusine indica
  activity level (growth control rate) Eleusine indica: 1 (Level 1: growth control rate is greater than or equal to 5% and less than 20%)
Amaranthus retroflexus
  activity level (growth control rate) Amaranthus retroflexus: 2 (Level 2: growth control rate is greater than or equal to 20% and less than 40%)
Echinochloa crusgalli
  activity level (growth control rate) Echinochloa crusgalli: 1 (Level 1: growth control rate is greater than or equal to 5% and less than 20%)

## COC(=O)c1c(Cl)nn(C)c1S(=O)(=O)NC(=O)Nc1nc(OC)cc(OC)n1 [halosulfuron methyl]
Malachium aquaticum; B 9 g a.i./ha
  Control effect (%) of B applied alone (B): 36.4%

## CCS(=O)(=O)c1cccnc1S(=O)(=O)NC(=O)Nc1nc(OC)cc(OC)n1 [rimsulfuron]
Malachium aquaticum; B 1.5 g a.i./ha
  Control effect (%) of B applied alone (B): 26.2%

## COC(=O)c1ccccc1S(=O)(=O)NC(=O)N(C)c1nc(C)nc(OC)n1 [tribenuron-methyl]
Malachium aquaticum; B 3 g a.i./ha
  Control effect (%) of B applied alone (B): 27.9%

## COC(=O)[C@H](C)O/N=C/c1cc(-n2c(=O)n(C)c(=S)n(C)c2=O)c(F)cc1Cl [1(S)]
Eleusine indica
  activity level (growth control rate) Eleusine indica: 1 (Level 1: growth control rate is greater than or equal to 5% and less than 20%)
Amaranthus retroflexus
  activity level (growth control rate) Amaranthus retroflexus: 1 (Level 1: growth control rate is greater than or equal to 5% and less than 20%)
Echinochloa crusgalli
  activity level (growth control rate) Echinochloa crusgalli: 1 (Level 1: growth control rate is greater than or equal to 5% and less than 20%)

## COC(=O)c1sccc1S(=O)(=O)NC(=O)Nc1nc(C)nc(OC)n1 [thifensulfuron methyl]
Malachium aquaticum; B 4.5 g a.i./ha
  Control effect (%) of B applied alone (B): 30.8%

## oxadiargyl
Lithospermum arvense; B 30 g a.i./ha
  Control effect (%) of B applied alone (B): 38.7%

## COC(=O)CO/N=C/c1cc(-n2c(=O)cc(C(F)(F)F)n(C)c2=O)c(F)cc1Cl [Control compound D, reference compound]
Alopecurus japonicus
  Weeding effect in post-emergence stage, Alopecurus japonicus (level): 2 (Level 2: growth control rate is greater than or equal to 20% and less than 40%)
Setaria viridis
  Weeding effect in post-emergence stage, Setaria viridis (level): 3 (Level 3: growth control rate is greater than or equal to 40% and less than 60%)
Digitaria sanguinalis
  Weeding effect in post-emergence stage, Digitaria sanguinalis (level): 3 (Level 3: growth control rate is greater than or equal to 40% and less than 60%)
Eleusine indica; [1]
  Weeding effect in post-emergence stage, Eleusine indica (level): 3 (Level 3: growth control rate is greater than or equal to 40% and less than 60%)
Eleusine indica
  activity level (growth control rate) Eleusine indica: 2 (Level 2: growth control rate is greater than or equal to 20% and less than 40%)
Amaranthus retroflexus
  activity level (growth control rate) Amaranthus retroflexus: 2 (Level 2: growth control rate is greater than or equal to 20% and less than 40%)
Echinochloa crusgalli; [1]
  Weeding effect in post-emergence stage, Echinochloa crusgalli (level): 4 (Level 4: growth control rate is greater than or equal to 60% and less than 85%)
Echinochloa crusgalli
  activity level (growth control rate) Echinochloa crusgalli: 1 (Level 1: growth control rate is greater than or equal to 5% and less than 20%)

## CCOc1cc(Oc2ccc(C(F)(F)F)cc2Cl)ccc1[N+](=O)[O-] [oxyfluorfen]
Lithospermum arvense; B 60 g a.i./ha
  Control effect (%) of B applied alone (B): 31.5%

## C#CCN1C(=O)C(F)(F)Oc2cc(F)c(-n3c(=O)n(C)c(=S)n(C)c3=O)cc21 [trifludimoxazin]
Lithospermum arvense; B 4.5 g a.i./ha
  Control effect (%) of B applied alone (B): 31.8%

## COCc1cnc(C2=NC(C)(C(C)C)C(=O)N2)c(C(=O)O)c1 (stereo not drawn) [imazamox]
Malachium aquaticum; B 15 g a.i./ha
  Control effect (%) of B applied alone (B): 27.2%
